The subject of series [1] is human red blood cells (hRBCs). In words: Hemolysis assay. The following applies: 1 hour.
In the next series the test system is Cryptococcus neoformans. In words: Checkerboard microdilution synergy (FIC). Conditions: for FIC / MIC alone / MIC combo: AMB and MM:TM. Background: Broth dilution looks for growth in wells or tubes with falling amounts of substance.
A further series deals with Trichophyton rubrum. In words: MIC100 against dermatophytes (modified CLSI M38-A). The class given is cell-based. The following applies: ATCC28188; Trichophyton rubrum isolate ATCC 28188. The procedure:
(§1) The final group of fungi tested for sensitivity to nylon-3 polymers were dermatophytes. In contrast to the other filamentous fungi tested, three of these isolates were evaluated following a modified version of the CLSI M38-A methodology (using hyphal fragments in liquid culture, because of difficulties in obtaining conidia). […] Mixed efficacy of the nylon-3 polymers was observed across the four species of dermatophytes tested. […] The activity against P. destructans, the causative agent of White Nose syndrome in bats, and just one of many emerging fungal pathogens threatening wildlife is encouraging because there are few options at present for preventing the spread of this devastating pathogen. The facility with which nylon-3 polymers can be modified could provide opportunities for the development of topical agents with high specificity for particular fungi.

The subject of a further series is Microsporum canis. In words: MIC100 against dermatophytes (modified CLSI M38-A). Conditions: Microsporum canis isolate UW10. The series is classed as cell-based. On the procedure:
as §1

A further series relates to Trichophyton tonsurans. In words: MIC100 against dermatophytes (modified CLSI M38-A). The series is classed as cell-based. The following applies: CBS112818; Trichophyton tonsurans isolate CBS 112818. On the procedure:
as §1

A further series concerns Aspergillus spp. In words: microbe, parasite or virus in culture.
The test system of series [2] is Pseudogymnoascus destructans. Briefly: MIC100 against dermatophytes (conidia, 12°C, seven days). The class given is cell-based. Conditions: Pseudogymnoascus destructans isolate ATC MYA-4855. The procedure: as §1
The test system of a further series is Aspergillus fumigatus. In words: microbe, parasite or virus in culture.
The subject of another series is Cryptococcus amylolentus. In words: MIC100 against yeast (CLSI M27-A3). The class given is cell-based.
Setting [3] is: H99, […]10^5 cells/mL, 30°C, OD600 48 h, Avg.
Where [4] appears, read: H99, […]10^5 cells/mL, 30°C, OD600 48 h, trial 1.
Where [5] appears, read: H99, […]10^5 cells/mL, 30°C, OD600 48 h, trial 2.
The mark [6] stands for this setting: MM:TM (40:60) with Amp B, isolate H99 (Amp B Sensitive), […]10^5 cells/mL, 30° C.
[7] abbreviates: NM20 with Amp B, isolate H99, […] 10^5 cells/mL.
[8] abbreviates: Table 41, MM:TM with Amp B, isolate H99, […] 10^5 cells/mL.

Structures are written as SMILES. In brackets after ≈: the same amount, converted by molar mass. Several values for one entry are separate records, joined by “and”; a condition that tells them apart may be missing. Identical values can stand only once. Where only a bound is given, the exact number is not on record here.

For `C[C@@H]1[C@H](O)[C@@H](C)/C=C/C=C/C=C/C=C/C=C/C=C/C=C/[C@H](O[C@@H]2O[C@H](C)[C@@H](O)[C@H](N)[C@@H]2O)C[C@@H]2O[C@](O)(C[C@@H](O)C[C@@H](O)[C@H](O)CC[C@@H](O)C[C@@H](O)CC(=O)O[C@H]1C)C[C@H](O)[C@H]2C(=O)O` [AMB, amphotericin B], the “concentration causing 10% hemolysis (HC10)” value in series [1] was determined as 27 µM. The “concentration causing 50% lysis of hRBCs (HC50)” value in series [1] amounted to 54 µM. Moreover, in the series with Cryptococcus neoformans (H99), the “decrease of the MIC of AMB in combination with MM:TM” value was more than 10 fold. Also, in the series with Cryptococcus neoformans (H99, AMB and MM:TM in combination, […]10^5 cells/mL, 30°C, OD600 48 h), the “MIC Combined” value is 0.16 µM. In addition, the FIC is given as 0.05 in the series with Cryptococcus neoformans (H99, Avg.); 0.06 in the series with Cryptococcus neoformans (H99, trial 1); 0.03 with Cryptococcus neoformans (H99, trial 2). The MIC alone in the series with Cryptococcus neoformans (setting [3]) is 3.1 µg/mL; in the series with Cryptococcus neoformans (setting [4]), 3.1 µg/mL; with Cryptococcus neoformans (setting [5]), 3.1 µg/mL; in the series with Cryptococcus neoformans (H99, single agent, […]10^5 cells/mL, 30°C, OD600 48 h), 3.4 µM. The MIC combo with Cryptococcus neoformans (setting [3]) is 0.15 µg/mL; with Cryptococcus neoformans (setting [4]) it was 0.2 µg/mL; in the series with Cryptococcus neoformans (setting [5]) it was 0.1 µg/mL. For the same compound, the “MIC AMB alone” value was 3.4 µM in the series with Cryptococcus neoformans (H99, AMB as single agent, OD600, 48 h, 30° C.) and 3.1 µg/mL in the series with Cryptococcus neoformans (setting [7]). Also, the “MIC AMB combination” value in the series with Cryptococcus neoformans (H99, AMB in combination with MM:TM, OD600, 48 h, 30° C.) is 0.1 µM and 0.16 µM and 0.2 µM. The FICAMB in the series with Cryptococcus neoformans (H99, AMB with MM:TM) is 0.03 and 0.05 and 0.06. Also, the “FICAmp B” value with Cryptococcus neoformans (setting [6]) stood at 0.09. Further, the “MIC Amp B alone” value with Cryptococcus neoformans (setting [6]) and with Cryptococcus neoformans (setting [8]) was 1.6 µg/mL each time. Moreover, the “MIC Amp B in combination” value with Cryptococcus neoformans (setting [6]) and in the series on Cryptococcus neoformans (setting [8]) was 0.15 µg/mL in each case. In addition, in the series with Cryptococcus neoformans (setting [7]), the “MIC AMB in combination” value amounted to 0.1 µg/mL.

As for `CCC(C)n1ncn(-c2ccc(N3CCN(c4ccc(OCC5COC(Cn6cncn6)(c6ccc(Cl)cc6Cl)O5)cc4)CC3)cc2)c1=O` (centres unmarked) [Itraconazole, itraconazole], the MIC with Trichophyton rubrum was 1 µg/mL (≈ 1.42 µM); in the series with Microsporum canis, 1 µg/mL (≈ 1.42 µM); against Trichophyton tonsurans it was 0.13 µg/mL (≈ 0.184 µM); against Aspergillus spp. it was approximately 1 µM (≈ 0.706 µg/mL); in series [2], 0.13 µg/mL (≈ 0.184 µM); against Aspergillus fumigatus (48 h, A. fumigatus AF293, visually, 1 × 10^5 cells/mL, 35° C.), 1 µg/mL and 1.4 µM. Moreover, the MIC is > 1 µg/mL and > 1.4 µM in the series on Aspergillus fumigatus (48 h, A. fumigatus CEA10, visually, 1 × 10^5 cells/mL, 35° C.); 48 µg/mL and 68.5 µM against Aspergillus fumigatus (48 h, A. fumigatus F11628, visually, 1 × 10^5 cells/mL, 35° C.); 32 µg/mL and 45.3 µM against Aspergillus fumigatus (48 h, A. fumigatus F16216, visually, 1 × 10^5 cells/mL, 35° C.); 1.4 µM (≈ 0.988 µg/mL) with Aspergillus fumigatus (A. fumigatus AF293); more than 1.4 µM against Aspergillus fumigatus (A. fumigatus CEA10); 68 µM (≈ 48 µg/mL) in the series with Aspergillus fumigatus (A. fumigatus F11628). In addition, the MIC in the series with Aspergillus fumigatus (A. fumigatus F16216) was 45.3 µM (≈ 32 µg/mL); against Aspergillus fumigatus (azole resistant strain F11628), more than 45 µM; with Aspergillus fumigatus (strain F16216) it was 45.3 µM (≈ 32 µg/mL).

For the compound `OC(Cn1cncn1)(Cn1cncn1)c1ccc(F)cc1F` [FLC, fluconazole], the MIC50 (commonly an inhibitory concentration at the 50% level, which refers to growth in some studies and to a panel of isolates in others) was determined as 16 µg/mL (≈ 52.2 µM) with Cryptococcus amylolentus (CBS6039, Cryptococcus amolyentous CBS 6039) and 16 µg/mL (≈ 52.2 µM) against Cryptococcus amylolentus (CBS6273, Cryptococcus amolyentous CBS 6273).

The values are drawn from patent publication US20180185408A1, “ANTIFUNGAL NYLON-3 POLYMERS AND COMBINATION THERAPY USING THEM TO TREAT FUNGAL INFECTIONS” (priority 2016, published 2018).
